Reference: paper PMC4809600, “The Influence of Chronic Wound Extracts on Inflammatory Cytokine and Histatin Stability” (PLoS ONE, 2016)

What was measured:
[1] = Stability in chronic wound extracts (CWE), capillary zone electrophoresis; assay type: in vitro ADME, human; details: 37°C, 96 h, CZE; for Starting material remaining intact after 96 h in CWE: 1 mg/ml in PBS mixed 1:1 with CWE (1 mg/ml protein, pools of 5 donors), 0 h = 100%, mean of 3 independent experiments; for Degradation in CWE in 96 h: incubation with chronic wound extracts
Excerpt: Debridement tissue was obtained from chronic ulcers of 15 patients with therapy resistant (arterio-venous) leg ulcers, according to procedures described earlier. In brief, moist, easily removable debridement material, essentially blood free, was collected from the ulcer surface and divided equally into two different solutions: (i) PBS (B. Braun, Melsungen, Germany), (ii) PBS with protease inhibitor cocktail (PIC) (1:100; v/v) (Sigma-Aldrich, Steinheim, Germany). The mixtures were gently shaken for 1 h at 4°C to elute proteins and centrifuged; the supernatants were stored at -80°C. Total protein content of the supernatant was measured using the BioRad Protein Assay (BioRad Laboratories, Hercules, California, USA) essentially as described by the supplier. Samples were diluted to 1 mg/ml protein and extracts of five different donors were pooled; three different pools of five donors were used in all experiments. The samples are referred to as chronic wound extracts (CWE).
To determine the stability of the different peptides in CWE, histatins and cytokines were dissolved in PBS at 1 mg/ml. Histatins and cytokines were incubated in a 1:1 ratio with (i) PBS, (ii) CWE in PBS, or (iii) CWE in PBS containing PIC, in a total volume of 25 μl. Imidazole (Sigma-Aldrich) was added as an internal standard, with a final concentration of 100 μg/ml. The mixtures were incubated at 37°C, and samples were taken at 0, 24, 48, 72 and 96 h. For histatins containing mixtures, additional samples were taken after 2, 4, 8 and 16 h of incubation.
The samples were analyzed with a BioFocus 2000 capillary zone electrophoresis system (Bio-Rad Laboratories, Hercules, CA, USA) equipped with an uncoated fused-silica capillary of internal diameter 50 μm and a length of 24 cm. Samples were loaded by pressure injection (5 psi/sec). Separation was performed at 10 kV (cathode at the detector side) at 20°C using 0.1 M phosphate buffer (pH 2.5) as electrolyte and monitored continuously at 200 nm. Peaks were quantified with the BioFocus Integrator software. In order to quantify the percentage of intact peptides remaining after incubation with CWE, the ratios of histatins, rhIL-6 or rhCXCL8 to internal standard was set at 100% at 0h, and the ratios at the other incubation time points were related to this.

dermal fibroblasts = test: Fibroblast wound healing scratch assay (migration); assay type: cell-based, human; details: serum-free medium, histatins 5 μM, rhIL-6 125 ng/ml, rhCXCL8 250 ng/ml, (E0-E96)/(U0-U96), unexposed = 1; for Migration of dermal fibroblasts in scratch assay, 8 h exposure: 8 h exposure then 88 h without, read at 96 h; for Migration of dermal fibroblasts in scratch assay, 96 h exposure: continuous 96 h exposure
Procedure: Dermal fibroblasts were isolated from healthy human abdominal skin from patients undergoing corrective abdominal plastic surgery. After removal of all adipose tissue, the skin was washed in PBS and incubated overnight on dispase II (Roche, Mannheim, Germany) at 4°C. The next day, epidermis was removed and discarded and the dermis was incubated in collagenase type II (Gibco, Life Technologies, Grand Island, USA)/dispase II in Hanks balanced salt solution (HBSS) (Gibco) at 37°C for 2–3 h. Fibroblast medium consisting of DMEM (Lonza, Verviers, Belgium) containing 1% ultroserG (UG) (Biosepra, Cergy-Saint-Christopher, France) and 1% penicillin-streptomycin (P/S) (Gibco) was added and the solution was passed through an 100 μm and 40 μm cell strainer (Becton Dickinson Falcon, Erembodegem, Belgium). A single cell suspension was seeded at ± 3.5 x 10^4 cells cm^2 and further cultured in fibroblast medium. Medium was changed twice a week and cultures were passaged when 90% confluent using 0.5mM EDTA/0.05% trypsin (Gibco). The cells were maintained at 37°C in a humidified atmosphere containing 5% CO2 and used for experiments at passage 3.
A wound healing scratch assay was performed to determine the effect of histatins, rhIL-6 and rhCXCL8 on fibroblast migration. Confluent monolayers of fibroblasts in a 48-well plate (Costar, Corning Incorporated, New York, USA) were incubated with serum-free medium (DMEM containing 1% P/S and 0.1% bovine serum albumin (Sigma-Aldrich)) for 96 h to ensure minimum spontaneous migration. Next, a scratch was drawn with a disposable plastic pipette tip. Cultures were exposed to Hst1, cHst1, Hst2 and mad-Hst1 (all used at a concentration of 5μM), rhIL-6 (125 ng/ml), rhCXCL8 (250 ng/ml) and vehicle (H2O) in serum free medium. Two experimental set-ups were studied: i) cells were exposed only during the first 8 h to histatins and cytokines and then transferred to vehicle supplemented medium for an additional 88 h; or ii) cells were exposed to histatins and cytokines during the entire 96 h study period. Phase contrast micrographs were taken directly after drawing the scratch and after four days (96 h) of exposure. Data were analyzed using an image processing algorithm that has been described in detail in our previous work. The area of the scratch covered by migrating fibroblasts was determined using the following equation: (E0-E96)/(U0-U96), in which: E = exposure to a condition (IL-6, CXCL8 and histatins); U = unexposed (serum-free medium); E0 and U0 = area of the scratch at T = 0 h; E96 and U96 = area of the scratch (not covered with cells) after 96 h. In this way, in each exposed group (IL-6, CXCL8, histatins) the resurfaced area at 96 h is compared to its own 0 h time point and then set relative to the unexposed group (serum-free medium).

[2] = experiment 1, average of four replicates
[3] = experiment 2, average of four replicates
[4] = experiment 3, average of four replicates
[5] = experiment 4, average of four replicates

Substance	Starting material remaining intact after 96 h in CWE [1]	Degradation in CWE in 96 h [1]	Migration of dermal fibroblasts in scratch assay, 8 h exposure (dermal fibroblasts; [2])	Migration of dermal fibroblasts in scratch assay, 8 h exposure (dermal fibroblasts; [3])	Migration of dermal fibroblasts in scratch assay, 8 h exposure (dermal fibroblasts; [4])	Migration of dermal fibroblasts in scratch assay, 8 h exposure (dermal fibroblasts; [5])	Migration of dermal fibroblasts in scratch assay, 96 h exposure (dermal fibroblasts; [2])	Migration of dermal fibroblasts in scratch assay, 96 h exposure (dermal fibroblasts; [3])	Migration of dermal fibroblasts in scratch assay, 96 h exposure (dermal fibroblasts; [4])	Migration of dermal fibroblasts in scratch assay, 96 h exposure (dermal fibroblasts; [5])
rhCXCL8: recombinant human CXCL8; source not split at this label (migration assay used CXCL8 (6–77) from R&D)	approximately 80%	~ 40%	1.29	1.35	1.63	2.13	1.13	1.58	1.46	1.64
rhIL-6: recombinant human IL-6; source not split at this label	more than 55%	~ 40%	1.22	1.38	1.91	2.25	1.7	1.23	1.5	2.03
